Source: the NIST ThermoML archive (doi:10.1016/j.fluid.2007.08.013)
Several values for one entry are separate records, joined by “and”; a condition that tells them apart may be missing. Identical values can stand only once.

Assay: activity coefficient (dimensionless); of the first substance listed, at infinite dilution; xn = mol fraction of the nth substance listed
Conditions: Liquid, x1 = 0

COCOC [dimethoxymethane] + O
Chromatography
Conditions | activity coefficient
273.35 K | 10.8
283.15 K | 13.7
293.15 K | 15.6
298.15 K | 16.9
303.15 K | 18
313.15 K | 19.9
323.15 K | 22
333.15 K | 23.9

C1COCO1 [1,3-dioxolane] + O
Conditions | activity coefficient
273.35 K, relative headspace analysis | 8.13
278.15 K, relative headspace analysis | 8.48
288.15 K, relative headspace analysis | 9.12
298.15 K, relative headspace analysis | 9.71
308.15 K, relative headspace analysis | 10.2
318.15 K, Chromatography | 10.6
328.15 K, Chromatography | 10.9
338.15 K, non steady state GLC | 11 and 11.4
348.15 K, Rayleigh distillation | 11.3
372.55 K, circulation still | 11.2

C1CCOC1 [tetrahydrofuran] + O
Conditions | activity coefficient
273.35 K, classical headspace analysis | 9.74
278.15 K, classical headspace analysis | 11.1
288.15 K, Chromatography | 14.3
298.15 K, Chromatography | 17.6
308.15 K, Chromatography | 20.6
318.15 K, Chromatography | 24
328.15 K, non steady state GLC | 26.8 and 28.1

COCCOC [1,2-dimethoxyethane] + O
Conditions | activity coefficient
318.15 K, Chromatography | 7.25
328.15 K, non steady state GLC | 9.12 and 8.81
338.15 K, non steady state GLC | 11.2 and 11.1
348.15 K, Rayleigh distillation | 12.2
372.5 K, circulation still | 14.9

C1CCOCC1 [tetrahydropyran] + O
activity coefficient
Conditions | 273.35 K | 283.15 K | 288.15 K | 298.15 K | 308.15 K | 318.15 K | 328.15 K
Chromatography | – | – | 58 | 70.5 | 83.4 | 96.2 | 108
relative headspace analysis | 39.6 | 44.9 | – | – | – | – | –

CCOCC [diethyl ether] + O
Chromatography
Conditions | activity coefficient
273.35 K | 33.9
278.15 K | 41.2
283.15 K | 49.4
288.15 K | 58.5
293.15 K | 68.6
298.15 K | 77.1
303.15 K | 88.8
308.15 K | 98.8
318.15 K | 121
328.15 K | 140

C1COCCO1 [1,4-dioxane] + O
Conditions | activity coefficient
273.35 K, relative headspace analysis | 3.53
278.15 K, relative headspace analysis | 4
288.15 K, headspace analysis | 5.17
288.15 K, relative headspace analysis | 4.75
298.15 K, headspace analysis | 5.88
308.15 K, headspace analysis | 6.7
308.15 K, relative headspace analysis | 6.15
318.15 K, relative headspace analysis | 6.82
328.15 K, non steady state GLC | 7.76
338.15 K, Chromatography | 8.22
338.15 K, non steady state GLC | 8.27
348.15 K, rayleigh distillation | 8.43
372.5 K, circulation still | 10.3
